Entries after “also recorded” stand apart in the source; their conditions may differ.
Legend:
[1] = biological target: T1, Lipomyces starkeyi LST1_205437 transporter, wild type, SEQ ID NO: 4 (Lipomyces starkeyi, UniProt A0A1E3QE37); assay: Inhibition of xylose uptake by glucose, SR8D8 expressing LST1_205437; type: cell-based; details: 25 mM or 100 mM glucose; in words
T1 construct: whole-cell 14C sugar uptake
T1 sequence (A0A1E3QE37 1-603): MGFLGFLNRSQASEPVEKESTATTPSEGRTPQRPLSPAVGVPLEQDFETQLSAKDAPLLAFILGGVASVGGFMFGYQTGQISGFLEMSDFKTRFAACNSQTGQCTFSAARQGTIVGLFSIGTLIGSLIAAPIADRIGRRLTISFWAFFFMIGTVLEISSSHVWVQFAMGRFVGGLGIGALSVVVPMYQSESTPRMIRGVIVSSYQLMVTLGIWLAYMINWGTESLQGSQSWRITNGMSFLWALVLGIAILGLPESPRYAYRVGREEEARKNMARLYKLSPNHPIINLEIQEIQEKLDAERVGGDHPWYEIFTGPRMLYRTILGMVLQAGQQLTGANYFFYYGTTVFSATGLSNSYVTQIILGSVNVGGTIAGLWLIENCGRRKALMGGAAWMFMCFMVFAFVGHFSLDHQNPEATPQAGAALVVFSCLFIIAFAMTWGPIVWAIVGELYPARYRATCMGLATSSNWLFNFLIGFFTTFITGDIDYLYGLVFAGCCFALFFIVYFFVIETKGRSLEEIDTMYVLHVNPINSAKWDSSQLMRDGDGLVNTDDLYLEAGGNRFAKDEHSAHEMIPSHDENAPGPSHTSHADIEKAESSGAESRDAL
Method: Symbols: glucose (square), xylose (triangle up), DCW (circle), ethanol (triangle down), glycerol (diamond). […] Global curve fitting for Michaelis-Menten kinetics with competitive inhibition was applied to data of three independent measurements at each concentration.
(§1) SR8D8 containing the respective plasmid was grown on selective YPE medium to an OD600 of 1-1.5, harvested by centrifugation, and washed twice in ice-cold uptake buffer (100 mM potassium phosphate, pH 6.5). C14 labeled sugar uptake assay was done according to Boles and Oreb. Radioactivity was analyzed in a Beckman-Coulter LS6500 multi-purpose liquid scintillation counter (Beckman-Coulter, CA, USA).
Sugar solutions contained 0.135-0.608 μCi of D-[U-^14C]-glucose (290-300 mCi/mmol) or D-[1-^14C]-xylose (55 mCi/mmol) (PerkinElmer, MA, USA). Calculation of Km (Michaelis constant), Vmax (maximal initial uptake velocity), and K (inhibitor constant for competitive inhibition) was done by nonlinear regression analysis and global curve fitting in Prism 7 (GraphPad Software) with values of three independent measurements.

[2] = biological target: T2, Saccharomyces cerevisiae ScGal2 (Gal2) transporter, SEQ ID NO:32 (Saccharomyces cerevisiae, UniProt P13181); assay: C14 labeled sugar uptake assay (zero-trans influx), SR8D8 expressing ScGal2; type: cell-based; details: initial glucose uptake (5 s), 30° C., pH 6.5
T2 construct: expressed in transfected cells; host or cells: S. cerevisiae SR8D8 (SR8 with HXT1-7 and GAL2 deleted), plasmid p42K-GPD1p-CYC1t
T2 sequence (P13181 1-574): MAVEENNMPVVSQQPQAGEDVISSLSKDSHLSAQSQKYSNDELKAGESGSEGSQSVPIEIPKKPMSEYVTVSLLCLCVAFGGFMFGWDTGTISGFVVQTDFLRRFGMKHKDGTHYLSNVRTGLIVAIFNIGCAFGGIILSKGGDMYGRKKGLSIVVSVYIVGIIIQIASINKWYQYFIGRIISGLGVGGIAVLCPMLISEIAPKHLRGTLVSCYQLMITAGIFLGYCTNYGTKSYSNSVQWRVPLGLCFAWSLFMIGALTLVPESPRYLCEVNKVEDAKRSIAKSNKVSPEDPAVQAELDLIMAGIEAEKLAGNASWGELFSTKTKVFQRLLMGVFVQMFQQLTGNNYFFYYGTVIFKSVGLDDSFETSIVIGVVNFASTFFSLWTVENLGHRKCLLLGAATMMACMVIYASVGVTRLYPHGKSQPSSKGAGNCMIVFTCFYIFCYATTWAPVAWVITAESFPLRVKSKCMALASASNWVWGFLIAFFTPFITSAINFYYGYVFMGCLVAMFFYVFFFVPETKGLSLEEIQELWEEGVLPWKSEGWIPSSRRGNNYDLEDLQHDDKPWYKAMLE
Method: FIG. 7A illustrates sugar uptake kinetics by SR8D8. FIG. 7B illustrates sugar uptake kinetics by SR8D8 expressing AtSWEET1. FIG. 7C illustrates sugar uptake kinetics by SR8D8 expressing ScGal2. FIG. 7D illustrates sugar uptake kinetics by SR8D8 expressing AtSWEET7. FIG. 7E illustrates sugar uptake kinetics by SR8D8 expressing LST1_205437. Initial xylose uptake (20 s) was measured at 30° C. over a concentration range of 1 to 500 mM xylose. FIG. 7F illustrates sugar uptake kinetics by SR8D8. FIG. 7G illustrates sugar uptake kinetics by SR8D8 expressing AtSWEET1. FIG. 7H illustrates sugar uptake kinetics by SR8D8 expressing ScGal2. FIG. 7I illustrates sugar uptake kinetics by SR8D8 expressing AtSWEET7. FIG. 7J illustrates sugar uptake kinetics by SR8D8 expressing LST1_205437. Initial glucose uptake (5 s) was measured at 30° C. over a concentration range of 0.2 to 100 mM glucose. Curve fitting for Michaelis-Menten kinetics was applied to data of three independent measurements at each concentration.
A xylose fermenting S. cerevisiae yeast (SR8) with HXT1-7Δ, GAL2Δ deletions was used for transporter screening and characterization (SR8D8). SR8D8 was grown in YPE medium/plate (10 g/L yeast extract, 20 g/L peptone, and 5 g/L ethanol). […] Biomass was calculated from the OD600 measured using a Biomate 5 UV-visible spectrophotometer (Fisher, NY, USA). All growth rates were measured using a Bioscreen C plate reader system (Growth Curves USA, Piscataway, NJ, USA). […]
as §1, with “C14 labeled sugar uptake assay was done according to Boles and Oreb.” left out
Uptake was measured at sugar concentrations 0.2, 1, 5, 25, and 100 mM for glucose and 1, 5, 25, 66, 100, 200, and 500 mM for xylose. Inhibition of xylose uptake by glucose was measured at 25, 66, and 100 mM xylose with additional 25 and 100 mM unlabeled glucose.

## OC[C@H]1OC(O)[C@H](O)[C@@H](O)[C@@H]1O (stereo partly drawn) [Glucose]
[1]
  inhibition of xylose transport by glucose: less inhibited by glucose than those by ScGal2; also recorded: glucose concentration dependent inhibition of xylose transport
[2]
  Vmax (glucose): 38.33 nmol/min/mg
[2]; cell wet weight, ± SEM
  Vmax (glucose): 38.3 ± 1.4 nmol/min/mg

Source: patent publication US12686846B2, “Plant sweet and yeast MSF transporter capable of transporting different sugars simultaneously” (THE BOARD OF TRUSTEES OF THE UNIVERSITY OF ILLINOIS, priority 2020, dated 2026)
